Experimental data as given in publication PMC4222603, “Dual inhibition of HIV-1 replication by integrase-LEDGF allosteric inhibitors is predominant at the post-integration stage” (Retrovirology, 2013).

What was measured:
[1] = target: T1, IN 3′ processing activity (Human immunodeficiency virus type 1 group M subtype B, UniProt P12497); experiment: IN 3′ processing radioactive assay; assay type: biochemical, HIV-1; conditions: at 100 nM
T1 construct: were carried out at 37°C with the full-length HIV-1 IN
Excerpt: (§1) Sequences of the different oligonucleotides (ODN) substrates are U5B: 5′-[…]-3′, U5A: 5′- […]-3′ and U5B-2: 5′-[…]-3′. ODNs were purchased from Eurogentec and further purified by electrophoresis in a denaturing 16% acrylamide/urea gel. For activity assays, ODNs (U5B and U5B-2) were radiolabelled with T4 polynucleotide kinase (New England Biolabs) and γ[^32-P]ATP (3000 Ci/mmol) (Amersham), and purified on a Sephadex G-10 column (GE Healthcare). Double-stranded ODNs (U5B with U5A and U5B-2 with U5A used for 3′-processing and strand transfer reactions, respectively) were obtained by mixing equimolar amounts of complementary strands in the presence of 100 mM NaCl.
(§2) IN activity assays – 3′-processing, strand transfer – were carried out at 37°C with the full-length HIV-1 IN, in a buffer containing 10 mM HEPES (pH 7.2), 1 mM DTT, 7.5 mM MgCl2 in the presence of 6.25 nM DNA (3′-processing) or 12.5 nM DNA (strand transfer) as described previously. For negative control, 100 mM Na2EDTA was added to the reaction before incubation. Products were separated by electrophoresis in denaturing 16% acrylamide/urea gels. Gels were analysed with a Molecular Dynamics STORM phosphoimager and quantified with ImageQuant™ 4.1 software.

[2] = target: T2, IN strand transfer activity (full-length HIV-1 IN) (Human immunodeficiency virus type 1 group M subtype B, UniProt P12497); experiment: IN strand transfer radioactive assay; assay type: biochemical
T2 construct: were carried out at 37°C with the full-length HIV-1 IN
Excerpt: as §1, §2

[3] = target: His6-IN A128T (HIV-1 NL4-3 integrase mutant A128T) (HIV-1 NL4-3); experiment: SEC; Superdex 200 10/300 GL, 0.4 mL/min, 50 mM HEPES pH 7.5, 1 M NaCl, 7 mM CHAPS, 5 mM MgCl2, 10 mM DTT, 10% glycerol, room temperature; His6-IN wt 21 uM or His6-IN A128T 40 uM; no compound
[4] = target: His6-IN A128T (HIV-1 NL4-3 integrase mutant A128T) (HIV-1 NL4-3); experiment: SEC; Superdex 200 10/300 GL, 0.4 mL/min, 50 mM HEPES pH 7.5, 1 M NaCl, 7 mM CHAPS, 5 mM MgCl2, 10 mM DTT, 10% glycerol, room temperature; His6-IN wt 21 uM or His6-IN A128T 40 uM incubated for 10 min with 100 uM BI-D or Mut101 before injection

Row | Compound | inhibition at 0.1 µM [1] [%] | IC50 [2] [nM] | stoichiometry N [3] | stoichiometry N [4]
1 | C[C@@H]1CCO[C@H]2Cn3cc(C(=O)NCc4ccc(F)cc4F)c(=O)c(O)c3C(=O)N12 [DTG, Dolutegravir, reference compound] | 16 | 2.7 | – | –
2 | His6-IN A128T (HIV-1 NL4-3 integrase mutant A128T) (enzyme) | – | – | 2 | 4
